Measured values taken from patent US10457709B2, “Antimicrobial peptides, their variants and uses” (priority 2015, dated 2019).
Converted amounts (≈) assume the structure as drawn. Where two headings read alike, the source gives them in different places. Square brackets hold non-standard residues; d marks the D form. Peptide text beside a SMILES is read from it.

Experiments:
[1] = test system: Acinetobacter baumannii clinical strains; format: cell-based; parameters: Minimum inhibitory concentration: unit: μg/ml; conditions: microdilution, Muller Hinton broth-cation adjusted, 0.02% BSA, 0.2% acetic acid
Summary of the method: (§1)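 Antifungal testing uses potato dextrose broth; antibacterial testing uses Mueller Hinton broth. Cell density is set to 5.0×10^5 cfu/ml and incubation runs 20–24 h at 37° C. MIC is the lowest concentration, within 0.125–128 μg/ml, at which no growth is visible.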

[2] = test system: Enterobacter cloacae clinical strains; format: cell-based; parameters: Minimum inhibitory concentration: unit: μg/ml; conditions: microdilution, Muller Hinton broth-cation adjusted, 0.02% BSA, 0.2% acetic acid
Summary of the method: as §1

[3] = test system: Proteus mirabilis clinical strains; format: cell-based; parameters: Minimum inhibitory concentration: unit: μg/ml; conditions: microdilution, Muller Hinton broth-cation adjusted, 0.02% BSA, 0.2% acetic acid
Summary of the method: as §1

[4] = test system: Serratia marcescens clinical strains; format: cell-based; parameters: Minimum inhibitory concentration: unit: μg/ml; conditions: microdilution, Muller Hinton broth-cation adjusted, 0.02% BSA, 0.2% acetic acid
Summary of the method: as §1

[5] = test system: Staphylococcus aureus clinical strains; format: cell-based; parameters: Minimum inhibitory concentration: unit: μg/ml; conditions: microdilution, Muller Hinton broth-cation adjusted, 0.02% BSA, 0.2% acetic acid
Summary of the method: as §1

[6] = test system: Streptococcus pneumoniae clinical strains; format: cell-based; parameters: Minimum inhibitory concentration: unit: μg/ml; conditions: microdilution, Muller Hinton broth-cation adjusted, 0.02% BSA, 0.2% acetic acid
Summary of the method: as §1

[7] = test system: Candida albicans clinical strains; assay: MIC, clinical yeast strains; format: cell-based; parameters: unit: μg/ml
Summary of the method: as §1

[8] = test system: C. glabrata clinical strains; assay: MIC, clinical yeast strains; format: cell-based, Candida glabrata; parameters: unit: µg/ml
Summary of the method: as §1

[9] = test system: C. parapsilosis clinical strains; assay: MIC, clinical yeast strains; format: cell-based, Candida parapsilosis; parameters: unit: µg/ml
Summary of the method: as §1

[10] = test system: C. quillermondiae clinical strains; assay: MIC, clinical yeast strains; format: cell-based, Candida quillermondiae; parameters: unit: μg/ml; conditions: C. quillermondiae clinical yeast strain 1
Summary of the method: as §1

[11] = test system: Acinetobacter johnsonii clinical strains; format: cell-based; conditions: Acinetobacter johnsonii clinical strain 1; microdilution, Muller Hinton broth-cation adjusted, 0.02% BSA, 0.2% acetic acid
Summary of the method: as §1

[12] = test system: Escherichia coli clinical strains; format: cell-based; conditions: for Minimum inhibitory concentration: microdilution, Muller Hinton broth-cation adjusted, 0.02% BSA, 0.2% acetic acid
Summary of the method: as §1

[13] = test system: Klebsiella pneumoniae clinical strains; format: cell-based; conditions: microdilution, Muller Hinton broth-cation adjusted, 0.02% BSA, 0.2% acetic acid
Summary of the method: as §1

[14] = test system: Pseudomonas aeruginosa clinical strains; format: cell-based; conditions: microdilution, Muller Hinton broth-cation adjusted, 0.02% BSA, 0.2% acetic acid
Summary of the method: as §1

[15] = test system: all the bacteria and yeasts tested; format: cell-based
Summary of the method: as §1

MIC against E. coli ([12]; clinical strains): 1 µg/mL (≈ 0.619 µM)
MIC against the rest of the bacterial strains [15]: > 32 µg/mL
SMILES: CC(C)C[C@@H](NC(=O)[C@H](N)CCCNC(=N)N)C(=O)N[C@H](CCCCN)C(=O)N[C@H](CCCNC(=N)N)C(=O)N[C@H](Cc1c[nH]c2ccccc12)C(=O)N[C@H](CCCNC(=N)N)C(=O)N[C@H](CC(C)C)C(=O)N[C@H](Cc1ccccc1)C(=O)N[C@H](CCCNC(=N)N)C(=O)N[C@H](CCCCN)C(=O)N[C@H](CCCNC(=N)N)C(=O)O [Chain306D] (H-[dR][dL][dK][dR][dW][dR][dL][dF][dR][dK][dR]-OH)
Minimum inhibitory concentration ([1]; Acinetobacter baumannii clinical strain 1): 16
Minimum inhibitory concentration ([1]; Acinetobacter baumannii clinical strain 2): 32
Minimum inhibitory concentration ([1]; Acinetobacter baumannii clinical strain 3): 16
Minimum inhibitory concentration ([1]; Acinetobacter baumannii clinical strain 4): 16
Minimum inhibitory concentration ([1]; Acinetobacter baumannii clinical strain 5): 8
Minimum inhibitory concentration ([2]; Enterobacter cloacae clinical strain 1): 64
Minimum inhibitory concentration ([2]; Enterobacter cloacae clinical strain 2): 64
Minimum inhibitory concentration ([2]; Enterobacter cloacae clinical strain 3): 32
Minimum inhibitory concentration ([2]; Enterobacter cloacae clinical strain 4): 16
Minimum inhibitory concentration ([2]; Enterobacter cloacae clinical strain 5): 16
Minimum inhibitory concentration ([3]; Proteus mirabilis clinical strain 1): >128
Minimum inhibitory concentration ([3]; Proteus mirabilis clinical strain 2): >128
Minimum inhibitory concentration ([3]; Proteus mirabilis clinical strain 3): >128
Minimum inhibitory concentration ([3]; Proteus mirabilis clinical strain 4): >128
Minimum inhibitory concentration ([3]; Proteus mirabilis clinical strain 5): >128
Minimum inhibitory concentration ([4]; Serratia marcescens clinical strain 1): >128
Minimum inhibitory concentration ([4]; Serratia marcescens clinical strain 2): >128
Minimum inhibitory concentration ([4]; Serratia marcescens clinical strain 3): >128
Minimum inhibitory concentration ([4]; Serratia marcescens clinical strain 4): >128
Minimum inhibitory concentration ([4]; Serratia marcescens clinical strain 5): >128
Minimum inhibitory concentration ([5]; Staphylococcus aureus clinical strain 1): 16
Minimum inhibitory concentration ([5]; Staphylococcus aureus clinical strain 2): 32
Minimum inhibitory concentration ([5]; Staphylococcus aureus clinical strain 3): 32
Minimum inhibitory concentration ([5]; Staphylococcus aureus clinical strain 4): 16
Minimum inhibitory concentration ([5]; Staphylococcus aureus clinical strain 5): 8
Minimum inhibitory concentration ([6]; Streptococcus pneumoniae clinical strain 1): 64
Minimum inhibitory concentration ([6]; Streptococcus pneumoniae clinical strain 2): 64
Minimum inhibitory concentration ([6]; Streptococcus pneumoniae clinical strain 3): 64
Minimum inhibitory concentration ([6]; Streptococcus pneumoniae clinical strain 4): 128
Minimum inhibitory concentration ([6]; Streptococcus pneumoniae clinical strain 5): 64
Minimum inhibitory concentration ([7]; Candida albicans clinical yeast strain 1): 16
Minimum inhibitory concentration ([7]; Candida albicans clinical yeast strain 2): 8
Minimum inhibitory concentration ([7]; Candida albicans clinical yeast strain 3): 8
Minimum inhibitory concentration ([7]; Candida albicans clinical yeast strain 4): 16
Minimum inhibitory concentration ([7]; Candida albicans clinical yeast strain 5): 16
Minimum inhibitory concentration ([8]; C. glabrata clinical yeast strain 1): 8
Minimum inhibitory concentration ([8]; C. glabrata clinical yeast strain 2): 8
Minimum inhibitory concentration ([8]; C. glabrata clinical yeast strain 3): 16
Minimum inhibitory concentration ([8]; C. glabrata clinical yeast strain 4): 32
Minimum inhibitory concentration ([9]; C. parapsilosis clinical yeast strain 1): 8
Minimum inhibitory concentration ([9]; C. parapsilosis clinical yeast strain 2): 16
Minimum inhibitory concentration ([9]; C. parapsilosis clinical yeast strain 3): 16
Minimum inhibitory concentration ([9]; C. parapsilosis clinical yeast strain 4): 4
Minimum inhibitory concentration [10]: 4
Minimum inhibitory concentration [11]: 16
Minimum inhibitory concentration ([12]; Escherichia coli clinical strain 1): 1
Minimum inhibitory concentration ([12]; Escherichia coli clinical strain 2): 2
Minimum inhibitory concentration ([12]; Escherichia coli clinical strain 3): 2
Minimum inhibitory concentration ([12]; Escherichia coli clinical strain 4): 2
Minimum inhibitory concentration ([12]; Escherichia coli clinical strain 5): 2
Minimum inhibitory concentration ([13]; Klebsiella pneumoniae clinical strain 1): 128
Minimum inhibitory concentration ([13]; Klebsiella pneumoniae clinical strain 2): >128
Minimum inhibitory concentration ([13]; Klebsiella pneumoniae clinical strain 3): >128
Minimum inhibitory concentration ([13]; Klebsiella pneumoniae clinical strain 4): 64
Minimum inhibitory concentration ([13]; Klebsiella pneumoniae clinical strain 5): 64
Minimum inhibitory concentration ([14]; Pseudomonas aeruginosa clinical strain 1): 128
Minimum inhibitory concentration ([14]; Pseudomonas aeruginosa clinical strain 2): >128
Minimum inhibitory concentration ([14]; Pseudomonas aeruginosa clinical strain 3): 128
Minimum inhibitory concentration ([14]; Pseudomonas aeruginosa clinical strain 4): >128
Minimum inhibitory concentration ([14]; Pseudomonas aeruginosa clinical strain 5): 128
